Values joined by “and” are separate entries in the source; they are usually repeats but may differ in a detail not shown here. Equal values may be shown once.
What was measured:
[1] = tested on: A549 cells; assay: Cell viability by MTT method in A549 cells; assay type: cell-based; parameters: concentration or dose not given beside the values; details: 72 hours treatment
[2] = target: T1, AIMP2-DX2 (Homo sapiens, UniProt Q13155); assay: DX2-nanoluciferase assay (DX2 expression change) in transfected A549 cells; details: for inhibition at 10 µM / inhibition at 40 µM: A549, 4 h; for inhibition at 10 µM: read-out: DX-Nanoluciferase activity (10 μM), 10 μM, 4 hours treatment, A549 cells transfected with nanoluciferase-DX2; for inhibition at 40 µM: read-out: DX-Nanoluciferase activity (40 μM), 40 μM, 4 hours treatment, A549 cells transfected with nanoluciferase-DX2
T1 sequence (Q13155 1-251 isoform Q13155-2): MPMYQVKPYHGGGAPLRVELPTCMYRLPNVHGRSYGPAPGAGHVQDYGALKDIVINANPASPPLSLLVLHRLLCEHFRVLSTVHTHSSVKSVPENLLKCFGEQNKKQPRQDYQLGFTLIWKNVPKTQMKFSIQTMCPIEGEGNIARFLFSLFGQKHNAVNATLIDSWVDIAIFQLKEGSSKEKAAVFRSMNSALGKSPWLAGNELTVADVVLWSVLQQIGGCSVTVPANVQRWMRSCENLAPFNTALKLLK
Experimental: After cloning DX2 into a plasmid expressing nanoluciferase, the plasmid was transfected into A549 cells. Transfected cells were seeded 1×10^4 per well in a 96-well plate and stabilized for 12 hours. […] Cell viability was measured by the MTT method after 72 hours of treatment with each concentration of the compound in A549 cells.

[3] = inhibitory effect on AIMP2-DX2 expression
[4] = 4 hours treatment, A549 cells transfected with nanoluciferase-DX2

SMILES | Cell Viability (% inhibition) (A549) [1] | inhibition at 10 µM [2] [%] | inhibition at 40 µM [2, 3] [%] | DX-Nanoluciferase activity (10 μM) [2, 4] | DX-Nanoluciferase activity (40 μM) ([2]; 40 μM, 4 hours treatment, A549 cells transfected with nanoluciferase-DX2, inhibitory effect on AIMP2-DX2 expression)
CC(=O)N1CCN(c2ccc(NC(=O)[C@H](Cc3c[nH]c4ccccc34)NS(=O)(=O)c3ccc(C)cc3)cc2)CC1 [Compound 162, (S)—N-(4-(4-Acetylpiperazin-1-yl)phenyl)-3-(1H-indol-3-yl)-2-(4-methylphenylsulfonamido)propanamide] | 19.92 ± 16.25% | 20.6 ± 3.17 |  |  | 
Cc1ccc(S(=O)(=O)N[C@@H](Cc2c[nH]c3ccccc23)C(=O)NC(C)C)cc1 [Compound 180, (S)-3-(1H-indol-3-yl)-N-isopropyl-2-(4-methylphenylsulfonamido)propanamide] | 28.20 ± 5.02% |  | 4.04 ± 4.08 |  | 
CC(C)NC(=O)[C@H](Cc1c[nH]c2ccccc12)NS(=O)(=O)c1ccc(Br)cc1 [Compound 181, (S)-2-(4-Bromophenylsulfonamido)-3-(1H-indol-3-yl)-N-isopropylpropanamide] | 98.95 ± 0.74% |  | 44.1 ± 2.97 |  | 
COc1ccc(C(=O)NNC(=O)[C@H](Cc2c[nH]c3ccccc23)NS(=O)(=O)c2ccc(C)cc2)cc1 [Compound 182, (S)—N-(3-(1H-indol-3-yl)-1-(2-(4-methoxybenzoyl)hydrazinyl)-1-oxopropan-2-yl)-4-methylbenzenesulfonamide] | 0.19 ± 15.38% |  |  | 69.62 ± 3.16 (10 μM) | 
COc1ccc(NC(=O)NNC(=O)[C@H](Cc2c[nH]c3ccccc23)NS(=O)(=O)c2ccc(C)cc2)cc1 [Compound 183, (S)-2-(3-(1H-indol-3-yl)-2-(4-methylphenylsulfonamido)propanoyl)-N-(4-methoxyphenyl)hydrazinecarboxamide] | 42.25 ± 5.21% | 68.1 ± 8.2 |  |  | 
Cc1cc(C)n(C(=O)[C@H](Cc2c[nH]c3ccccc23)NS(=O)(=O)c2ccc(Br)cc2)n1 [Compound 184, (S)-4-Bromo-N-(1-(3,5-dimethyl-1H-pyrazol-1-yl)-3-(1H-indol-3-yl)-1-oxopropan-2-yl)benzenesulfonamide] | −24.64 ± 2.77% | 78.4 |  |  | 
Cc1ccc(S(=O)(=O)N[C@@H](Cc2c[nH]c3ccccc23)C(=O)NNC(=O)C23CC4CC(CC(C4)C2)C3)cc1 [Compound 186, N—((S)-1-(2-((3S,5S,7S)-adamantane-1-carbonyl)hydrazinyl)-3-(1H-indol-3-yl)-1-oxopropan-2-yl)-4-methylbenzenesulfonamide] | 59.96 ± 10.37% |  |  | 78.43 ± 6.05 (10 μM) | 
Cc1ccc(-c2csc(NC(=O)[C@H](Cc3c[nH]c4ccccc34)NS(=O)(=O)c3ccc(Br)cc3)n2)cc1 [Compound 187, (S)-2-(4-Bromophenylsulfonamido)-3-(1H-indol-3-yl)-N-(4-(p-tolyl)thiazol-2-yl)propanamide] | 61.41 ± 4.21% | 34.9 ± 10.6 |  |  | 
Cc1ccc(S(=O)(=O)N[C@@H](Cc2c[nH]c3ccccc23)C(=O)NCCc2ccccc2)cc1 [Compound 188, (S)-3-(1H-indol-3-yl)-2-(4-methylphenylsulfonamido)-N-phenethylpropanamide] | 53.90 ± 1.97% | 61.1 ± 12.9 |  |  | 
COc1ccc(C(=O)NNC(=O)[C@H](Cc2c[nH]c3ccccc23)NS(=O)(=O)c2ccc(C)cc2)cc1 [Compound 191, (S)—N-(3-(1H-Indol-3-yl)-1-(2-(4-methoxybenzoyl)hydrazinyl)-1-oxopropan-2-yl)-4-methylbenzenesulfonamide] | 49.17 ± 2.36% |  |  | 8.09 ± 6.94 (10 μM) | 
N#Cc1ccc(-c2csc(NC(=O)[C@H](Cc3c[nH]c4ccccc34)NS(=O)(=O)c3ccc(Br)cc3)n2)cc1 [Compound 192, (S)-2-(4-Bromophenylsulfonamido)-N-(4-(4-cyanophenyl)thiazol-2-yl)-3-(1H-Indol-3-yl)propanamide] | 81.69 ± 2.49% | 15.5 ± 3.27 |  |  | 
O=C(Nc1nc(-c2ccc(C(F)(F)F)cc2)cs1)[C@H](Cc1c[nH]c2ccccc12)NS(=O)(=O)c1ccc(Br)cc1 [Compound 193, (S)-2-(4-Bromophenylsulfonamido)-3-(1H-Indol-3-yl)-N-(4-(4-(trifluoromethyl)phenyl)thiazol-2-yl)propanamide] | 88.98 ± 0.59% and 88.98 ± 10.59% | 49.3 ± 9.52 |  |  | 
O=C(NCCc1ccccc1)[C@H](Cc1c[nH]c2ccccc12)NS(=O)(=O)c1ccc(Br)cc1 [Compound 196, (S)-2-(4-Bromophenylsulfonamido)-3-(1H-indol-3-yl)-N-phenethylpropanamide] | 79.27 ± 0.55% | 28.2 ± 2.11 |  |  | 
O=C(NNC(=O)C12CC3CC(CC(C3)C1)C2)[C@H](Cc1c[nH]c2ccccc12)NS(=O)(=O)c1ccc(Br)cc1 [Compound 197, N—((S)-1-(2-((3S,5S,7S)-adamantane-1-carbonyl)hydrazinyl)-3-(1H-indol-3-yl)-1-oxopropan-2-yl)-4-bromobenzenesulfonamide] | 84.86 ± 1.09% |  |  | 43.54 ± 5.26 (10 μM) and 43.64 ± 5.26 (10 μM) | 
O=C(NCCc1ccc(F)cc1)[C@H](Cc1c[nH]c2ccccc12)NS(=O)(=O)c1ccc(Br)cc1 [Compound 198, (S)-2-(4-Bromophenylsulfonamido)-N-(4-fluorophenethyl)-3-(1H-indol-3-yl)propanamide] | 82.05 ± 0.64% | 44.2 ± 8.7 |  |  | 
COc1ccc(CCNC(=O)[C@H](Cc2c[nH]c3ccccc23)NS(=O)(=O)c2ccc(Br)cc2)cc1 [Compound 199, (S)-2-(4-Bromophenylsulfonamido)-3-(1H-indol-3-yl)-N-(4-methoxyphenethyl)propanamide] | 84.34 ± 0.87% |  | 30.6 ± 8.13 |  | 
O=C(NCCCc1ccccc1)[C@H](Cc1c[nH]c2ccccc12)NS(=O)(=O)c1ccc(Br)cc1 [Compound 200, (S)-2-(4-Bromophenylsulfonamido)-3-(1H-indol-3-yl)-N-(3-phenylpropyl)propanamide] | 79.27 ± 0.9% |  | 46.4 ± 4.51 |  | 
O=C(NC12CC3CC(CC(C3)C1)C2)[C@H](Cc1c[nH]c2ccccc12)NS(=O)(=O)c1ccc(Br)cc1 [Compound 201, (S)—N((3R,5R,7R)-adamantan-1-yl)-2-(4-bromophenylsulfonamido)-3-(1H-Indol-3-yl)propanamide] | 87.1 ± 0.46% |  |  |  | 58.25 ± 4.09
COc1ccc(N2CCN(C(=O)[C@H](Cc3c[nH]c4ccccc34)NS(=O)(=O)c3ccc(Br)cc3)CC2)cc1 [Compound 202, (S)—N-(3-(1H-indol-3-yl)-1-(4-(4-methoxyphenyl)piperazin-1-yl)-1-oxopropan-2-yl)-4-bromobenzenesulfonamide] | 78.44 ± 2.44% |  | 38.6 ± 11.3 |  | 
COc1ccc(N2CCN(C(=O)[C@H](Cc3c[nH]c4ccccc34)NS(=O)(=O)c3ccc(C)cc3)CC2)cc1 [Compound 203, (S)—N-(3-(1H-indol-3-yl)-1-(4-(4-methoxyphenyl)piperazin-1-yl)-1-oxopropan-2-yl)-4-methylbenzenesulfonamide] | 48.15 ± 3.26% |  | 35.1 ± 14.2 |  | 
